Earlier results as cited in patent publication US20070265329A1, “Methods for the prevention of acute and delayed chemotherapy-induced nausea and vomiting (CINV)” (priority 2006, published 2007).
Read-outs that look alike come from different tables or passages of the source.

Tests used:
[1] = tested on: patients following moderately emetogenic chemotherapy
[2] = or 7 days
[3] = tested on: patients (acute phase CINV); conditions: over 24 hours (acute phase); study of 233 patients
[4] = tested on: delayed onset CINV; conditions: administered twice a day

Row | SMILES | patients who did not vomit or need additional medication for nausea ([1]; days 2-5 following moderately emetogenic chemotherapy) | patients who did not vomit or need additional medication for nausea ([1]; first day following moderately emetogenic chemotherapy) | most common side effects ([1]; patients taking Aloxi) | still detectable in the systemic circulation at [2] | complete response (no vomiting, no moderate or severe nausea, no rescue medication) [3] | clearance in cancer patients (compared with normal volunteers) | peak plasma concentrate (oral, 1 mg bid over seven days) | treatment of delayed onset CINV [4]
1 | O=C1c2cccc3c2[C@H](CCC3)CN1[C@@H]1CN2CCC1CC2 [Aloxi®, palonosetron] | 64% | 72% | headache and constipation | ≥ 168 h | – | – | – | –
2 | CN1C2CCCC1CC(NC(=O)c1nn(C)c3ccccc13)C2 (centres unmarked) [Kytril®, granisetron] | – | – | – | – | 81% | approximately half that of normal volunteers | 6.0 ng/mL | effective
